Test results: paper PMC12135072 (RSC Medicinal Chemistry, 2025)

Tests used:
[1] = tested on: MCF7 (ATCC – HTB-22, breast carcinoma); assay: MTT cell viability assay, MCF7; assay type: cell-based; details: Homo sapiens, MCF7, read-out: IC50 MCF7
[2] = tested on: A549 (ATCC – CCL-185, lung carcinoma); assay: MTT cell viability assay, A549; assay type: cell-based; details: Homo sapiens, A549, read-out: IC50 A549
[3] = tested on: HCT116 (ATCC – CCL-247, colon carcinoma); assay: MTT cell viability assay, HCT116; assay type: cell-based; details: Homo sapiens, HCT-116, read-out: IC50 HCT116
[4] = tested on: MRC5 (ATCC – CCL-171, human diploid fibroblast cell line); assay: cells; details: MRC5, read-out: IC50 MRC5

Compound | IC50 [1] [µM] | IC50 [2] [µM] | IC50 [3] [µM] | IC50 [4] [µM]
Cc1ccn(-c2ccc(C3C(C#N)=C(N)OC4=C3C(=O)CCC4)cc2)n1 (stereo not shown) [Compound 7a, 2-amino-4-(4-(3-methyl-1H-pyrazol-1-yl)phenyl)-5-oxo-5,6,7,8-tetrahydro-4H-chromene-3-carbonitrile] | 190 ± 5.34 | 89.7 ± 4.38 | 139 ± 3.89 | > 200
Cc1cnn(-c2ccc(C3C(C#N)=C(N)OC4=C3C(=O)CCC4)cc2)c1 (stereo not shown) [Compound 7b, 2-Amino-4-(4-(4-methyl-1H-pyrazol-1-yl)phenyl)-5-oxo-5,6,7,8-tetrahydro-4H-chromene-3-carbonitrile] | 24 ± 2.27 | 147 ± 3.61 | 163 ± 3.14 | > 200
Cc1cc(C)n(-c2ccc(C3C(C#N)=C(N)OC4=C3C(=O)CCC4)cc2)n1 (stereo not shown) [Compound 7c, 2-Amino-4-(4-(3,5-dimethyl-1H-pyrazol-1-yl)phenyl)-5-oxo-5,6,7,8-tetrahydro-4H-chromene-3-carbonitrile] | 22.9 ± 1.31 | > 200 | 194 ± 6.01 | > 200
N#CC1=C(N)OC2=C(C(=O)CCC2)C1c1ccc(-n2cc(Br)cn2)cc1 (stereo not shown) [Compound 7d, 2-Amino-4-(4-(4-bromo-1H-pyrazol-1-yl)phenyl)-5-oxo-5,6,7,8-tetrahydro-4H-chromene-3-carbonitrile] | 56.1 ± 3.79 | 23.6 ± 1.29 | 45.7 ± 0.67 | > 200
N#CC1=C(N)OC2=C(C(=O)CCC2)C1c1ccc(-n2ccc(C(F)(F)F)n2)cc1 (stereo not shown) [Compound 7e, 2-Amino-5-oxo-4-(4-(3-(trifluoromethyl)-1H-pyrazol-1-yl)phenyl)-5,6,7,8-tetrahydro-4H-chromene-3-carbonitrile] | 15 ± 0.78 | 18 ± 0.45 | 72.2 ± 0.96 | > 200
Cc1cncn1-c1ccc(C2C(C#N)=C(N)OC3=C2C(=O)CC(C)(C)C3)cc1 (stereo not shown) [Compound 8c, 2-Amino-7,7-dimethyl-4-(4-(5-methyl-1H-imidazol-1-yl)phenyl)-5-oxo-5,6,7,8-tetrahydro-4H-chromene-3-carbonitrile] | 83.2 ± 2.11 | 133 ± 5.81 | 162 ± 6.91 | > 200
CCc1nccn1-c1ccc(C2C(C#N)=C(N)OC3=C2C(=O)CC(C)(C)C3)cc1 (stereo not shown) [Compound 8d, 2-Amino-4-(4-(2-ethyl-1H-imidazol-1-yl)phenyl)-7,7-dimethyl-5-oxo-5,6,7,8-tetrahydro-4H-chromene-3-carbonitrile] | > 200 | 19.8 ± 0.94 | 137 ± 5.82 | > 200
CC1(C)CC(=O)C2=C(C1)OC(N)=C(C#N)C2c1ccc(-n2cnc(Br)c2)cc1 (stereo not shown) [Compound 8e, 2-Amino-4-(4-(4-bromo-1H-imidazol-1-yl)phenyl)-7,7-dimethyl-5-oxo-5,6,7,8-tetrahydro-4H-chromene-3-carbonitrile] | 74.87 ± 0.17 | 30.6 ± 1.85 | 77.6 ± 1.58 | > 200
N#CC1=C(N)Oc2c(c(=O)oc3ccccc23)C1c1ccc(OCc2cn(-c3ccccc3)nn2)cc1 (stereo not shown) [Compound 15a, 2-Amino-5-oxo-4-(4-((1-phenyl-1H-1,2,3-triazol-4-yl)methoxy)phenyl)-4H,5H-pyrano[3,2-c]chromene-3-carbonitrile] | > 200 | > 200 | > 200 | 146.5 ± 0.53
N#CC1=C(N)Oc2c(c(=O)oc3ccccc23)C1c1ccc(OCc2cn(-c3ccc(Cl)cc3)nn2)cc1 (stereo not shown) [Compound 15b, 2-Amino-4-(4-((1-(4-chlorophenyl)-1H-1,2,3-triazol-4-yl)methoxy)phenyl)-5-oxo-4H,5H-pyrano[3,2-c]chromene-3-carbonitrile] | > 200 | > 200 | > 200 | > 200
N#CC1=C(N)Oc2c(c(=O)oc3ccccc23)C1c1ccc(OCc2cn(-c3ccc(Br)cc3)nn2)cc1 (stereo not shown) [Compound 15c, 2-Amino-4-(4-((1-(4-bromophenyl)-1H-1,2,3-triazol-4-yl)methoxy)phenyl)-5-oxo-4H,5H-pyrano[3,2-c]chromene-3-carbonitrile] | > 200 | > 200 | > 200 | 66.9 ± 1.6
Cc1ccc(-n2cc(COc3ccc(C4C(C#N)=C(N)Oc5c4c(=O)oc4ccccc54)cc3)nn2)cc1 (stereo not shown) [Compound 15d, 2-Amino-5-oxo-4-(4-((1-(p-tolyl)-1H-1,2,3-triazol-4-yl)methoxy)phenyl)-4H,5H-pyrano[3,2-c]chromene-3-carbonitrile] | > 200 | > 200 | > 200 | > 200
COc1ccc(-n2cc(COc3ccc(C4C(C#N)=C(N)Oc5c4c(=O)oc4ccccc54)cc3)nn2)cc1 (stereo not shown) [Compound 15e, 2-Amino-4-(4-((1-(4-methoxyphenyl)-1H-1,2,3-triazol-4-yl)methoxy)phenyl)-5-oxo-4H,5H-pyrano[3,2-c]chromene-3-carbonitrile] | > 200 | > 200 | > 200 | > 200
N#CC1=C(N)Oc2c(c(=O)oc3ccccc23)C1c1ccc(-n2ccnn2)cc1 (stereo not shown) [Compound 15f, 4-(4-(1H-1,2,3-Triazol-1-yl)phenyl)-2-amino-5-oxo-4H,5H-pyrano[3,2-c]chromene-3-carbonitrile] | 145 ± 2.75 | 72.9 ± 2.26 | 163 ± 5.45 | 156 ± 0.48
N#CC1=C(N)Oc2c(c(=O)oc3ccccc23)C1c1ccc(-n2cnnn2)cc1 (stereo not shown) [Compound 15g, 4-(4-(1H-Tetrazol-1-yl)phenyl)-2-amino-5-oxo-4H,5H-pyrano[3,2-c]chromene-3-carbonitrile] | > 200 | > 200 | > 200 | > 200
Cc1cc2c(c(=O)o1)C(c1ccc(OCc3cn(-c4ccccc4)nn3)cc1)C(C#N)=C(N)O2 (stereo not shown) [Compound 17a, 2-Amino-7-methyl-5-oxo-4-(4-((1-phenyl-1H-1,2,3-triazol-4-yl)methoxy)phenyl)-4H,5H-pyrano[4,3-b]pyran-3-carbonitrile] | > 200 | 80.5 ± 4.68 | > 200 | > 200
Cc1cc2c(c(=O)o1)C(c1ccc(OCc3cn(-c4ccc(Cl)cc4)nn3)cc1)C(C#N)=C(N)O2 (stereo not shown) [Compound 17b, 2-Amino-4-(4-((1-(4-chlorophenyl)-1H-1,2,3-triazol-4-yl)methoxy)phenyl)-7-methyl-5-oxo-4H,5H-pyrano[4,3-b]pyran-3-carbonitrile] | 36.06 ± 0.31 | 20.4 ± 1.87 | 47.4 ± 4.13 | > 200
Cc1cc2c(c(=O)o1)C(c1ccc(OCc3cn(-c4ccc(Br)cc4)nn3)cc1)C(C#N)=C(N)O2 (stereo not shown) [Compound 17c, 2-Amino-4-(4-((1-(4-bromophenyl)-1H-1,2,3-triazol-4-yl)methoxy)phenyl)-7-methyl-5-oxo-4H,5H-pyrano[4,3-b]pyran-3-carbonitrile] | > 200 | > 200 | > 200 | > 200
Cc1ccc(-n2cc(COc3ccc(C4C(C#N)=C(N)Oc5cc(C)oc(=O)c54)cc3)nn2)cc1 (stereo not shown) [Compound 17d, 2-Amino-7-methyl-5-oxo-4-(4-((1-(p-tolyl)-1H-1,2,3-triazol-4-yl)methoxy)phenyl)-4H,5H-pyrano[4,3-b]pyran-3-carbonitrile] | > 200 | > 200 | > 200 | > 200
